Laboratory results reported in US20070232577A1, “Synthetic pentacyclic triterpenoids and derivatives of betulinic acid and betulin” (Advanced Life Sciences, Inc., priority 2006, published 2007).
In brackets after ≈: the same amount, converted by molar mass.

Key:
[1] = system: SK-MEL-2 (melanoma)
Protocol: (§2) Cells were plated, the evening before treatment, for each treatment on 96-well plates (1×10^4 cells/well) in 100 μL volume per well. Drug solutions were prepared by diluting each test compound in DSMO (10 mM) with the appropriate cell growth media for each individual cell line, or in “Universal Media” if several cell lines were to be assayed in parallel, immediately prior to cell treatment. Universal Media consisted of 5 mL sodium pyruvate (100×liquid stock, CellGro), 5 mL glucose (100×, 45% liquid stock, CellGro), 5 mL Penicillin/Streptomycin (100×liquid stock, CellGro), 10 mL sodium bicarbonate (50×liquid stock, CellGro), 25 mL Fetal Calf Serum, 1.25 mL insulin (4 mg/mL, Gibco) and 449 mL RPMI media with 2 mM glutamine for a total volume of 500 mL. Cells were treated by aspirating media from each well and adding 80 μL of each drug solution to the attached cells. All treatments were performed in triplicate. Growth media (80 μL) were added to 3 blank wells (no cells) to measure background from the growth media Growth media alone (no DMSO or test compond) was added to 2 wells containing cells to measure the baseline MTS activity and vehicle (DMSO) control solutions were also included to monitor basal toxicity from DMSO. Cells were incubated at 37° C. for 72 h. MTS reagent (per 96-well plate) were prepared by combining 2 mL of MTS working solution (Cell Titer AQueous Non-Radioactive Cell Proliferation Assay, Promega, cat#G1112), 100 μL of 0.92 mg/mL phenazine methosulfate/Dulbecco's PBS and 2.1 mL growth media. MTS reagent (40 μL) were added to each well and incubated at 37° C. for 1.5 to 4 h. Plates were gently shaken by hand until solution in each well appeared homogenous. Absorbances at 490 nm were measured on a plate reader at multiple time points following the addition of MTS reagent for each plate. Triplicate absorbance (490 nm) measurements were averaged following background (no cell) subtraction for each drug concentration. Percent Cell Viability was calculated for each drug concentration using the following equation: {[Absorbances(drug treated)]/[Absorbances(DMSO treated)]}×100%
(§3) Percent viability (y-axis) was plotted against drug concentration (x-axis) and the resulting graph was used to determine the 50% inhibitory concentration (IC50) for each drug.

[2] = system: A-375 (melanoma); assay: MTS cell viability assay, A-375; assay type: cell-based; conditions: Homo sapiens, 72 h
Protocol: (§1) All treatments were performed in triplicate. […] Cells were incubated at 37° C. for 72 h.

[3] = system: SK-MEL-2, A-375, Daoy, LN-229, OVCAR-3, HT-29, MCF-7 cell lines; assay type: cell-based
Protocol: as §1

[4] = system: SK-MEL-2 cells; assay: Caspase activation assay, SK-MEL-2; assay type: cell-based; conditions: for caspase activating property compared with betulinic acid (1): SK-MEL-2, 5, 15, 50 μM, 2-24 h, absence of FBS
Protocol: All treatments were performed in duplicate. […] Cells were incubated at 37° C. for 8 h. Caspase assay reagent (per 96-well plate) was prepared according to manufacturer's instructions (Homogeneous Caspases Assay, fluorometric, Roche) by combining 6.3 mL Incubation Buffer with 0.7 mL of Substrate Stock Solution. Caspase assay reagent (70 μL) was added to each well; the plate was gently shaken by hand for 15-20 seconds and incubated at 37° C. for 4 h.
Fluorescent emission was measured at 535 nm on a plate reader using the “homogeneous caspase” program (excitation Wavelength=490 nm, emission wavelength=535 nm). Duplicate wells for each treatment were averaged following background (no cells) subtraction (emission 535 nm value from all experimental emission 535 nm values) for each drug concentration.
DMSO treatment represented baseline caspase activation in the absence of drug. The percent changes in caspase activity were plotted on the y-axis for each drug treatment.
Caspase activation assays were conducted to further characterize the mode of cell death. A treatment time and dose at which maximum caspase activation was observed prior to massive cell destruction would be indicative of apoptosis induction. SK-MEL-2 cells were treated with 5, 15, and 50 μM of the compound for 2, 4, 6, 8, 16, and 24 h in the absence of FBS (Fetal Bovine Serum).

[5] = system: MCF-7 (breast carcinoma); assay: MTS cell viability assay, MCF-7; assay type: cell-based; conditions: Homo sapiens, MCF7, 72 h
Protocol: as §1

[6] = system: Daoy (glioblastoma); assay: MTS cell viability assay, Daoy; conditions: Homo sapiens, Daoy, 72 h, read-out: IC50 Daoy
Protocol: as §2, §3

[7] = system: LN-229 (glioblastoma); assay: MTS cell viability assay, LN-229; assay type: cell-based; conditions: Homo sapiens, 72 h
Protocol: as §1

[8] = system: HT-29 (colon carcinoma); assay: MTS cell viability assay, HT-29; assay type: cell-based; conditions: Homo sapiens, 72 h
Protocol: as §1

[9] = system: SK-MEL-2 (melanoma); assay: MTS cell viability assay, SK-MEL-2; conditions: Homo sapiens, SK-MEL-2, 72 h, read-out: IC50 SK-MEL-2
Protocol: as §2, §3

[10] = system: OVCAR-3 (ovarian carcinoma); assay: MTS cell viability assay, OVCAR-3; assay type: cell-based; conditions: Homo sapiens, 72 h
Protocol: as §1

[11] = system: SK-MEL-2; assay: Annexin-V assay (apoptosis versus necrosis); assay type: cell-based; conditions: for selective apoptosis and dose dependence (in words): cell line not stated, above optimal dose cellular damage and non-apoptotic cell death
Protocol: Cells were plated (8.75×10^5 cells/6 cm. diameter tissue culture plates), the evening before treatment, in 4 mL volume per plate. This cell density is equivalent to the cell density used in the MTS and Caspase assays (1×10^4 cells/well (96-well plate). Drug solutions were prepared, immediately prior to cell treatment, in the same as described for caspase assay
Growth media alone (no DMSO or drug) was added to a plate containing cells to measure the baseline-Annexin-V reactivity and vehicle (DMSO) alone control solutions were also prepared to monitor Annexin-V reactivity from DMSO. Cells were incubated at 37° C. for 8 h. Growth media (3 mL) was removed from each plate and added to a 15 mL conical tube containing 0.333 mL FCS (final FCS concentration of 10%). The media was saved to include any apoptotic/dead cells that may have detached from the plate during drug treatment. FCS was added to the media to prevent further cell damage and improve the efficiency of cell pelleting during subsequent centrifugation steps (empirical observation). Adherent cells were rinsed once with PBS and 1 mL of trypsin was added. Plates were rotated several times to assure coating of the entire surface with trypsin which was then removed. Plates were incubated at 37° C. for 4-5 min. Trypsinized cells were re-suspended in the saved media for each sample. Cell suspension was placed back into 15 mL tubes, which were then cooled on ice. Cells were re-suspended by pipetting 7-8 times. The tubes were centrifuged at 130×g for 5 min at 4° C. The resulting cell pellets were re-suspended in the ice cold 1 mL of 1× Nexin Buffer (Guava Nexin kit, Guava Technologies) and transferred to 1.5 mL conical microcentrifuge tubes to rinse cells with residual growth media. This procedure was repeated by centrifugation of cells at 130×g for 5 min, at 4° C. Re-suspension of the resulting cell pellet in 50 μL Nexin Staining Solution (Guava Nexin kit, Guava Technologies) was followed by incubation on ice, in the dark, for 20 min. Guava Samples were analyzed immediately on the Guava flow cytometer, using the Guava Nexin software package (see Guava user's manual and Guava Nexin kit protocol on data acquisition and analysis protocols).

[12] = system: Daoy (glioblastoma)
Protocol: as §2, §3

Row | Structure (SMILES) | improvement in cytotoxicity relative to betulinic acid 1 in SK-MEL-2 [1] | IC50 [2] [µg/mL] | cytotoxic potency across the cell line panel (in words) [3] | caspase activating property compared with betulinic acid (1) [4] | IC50 [5] [µg/mL] | IC50 [6] [µg/mL] | IC50 [7] [µg/mL] | IC50 [8] [µg/mL] | IC50 [9] [µg/mL] | IC50 [10] [µg/mL] | selective apoptosis and dose dependence (in words) [11] | caspase activation in SK-MEL-2 (in words) ([4]; SK-MEL-2) | apoptosis versus necrosis by the Annexin assay (in words) ([11]; SK-MEL-2) | rank as apoptosis inducer within the collection (in words) ([11]; caspase and Annexin assays, SK-MEL-2) | improvement in cytotoxicity relative to betulinic acid 1 in Daoy [12]
1 | C=C(C)[C@@H]1CC[C@]2(C(=O)O)CC[C@]3(C)[C@H](CC[C@@H]4[C@@]5(C)CC[C@H](OC(=O)/C=C/c6ccc(OC(C)=O)c(OC(C)=O)c6)C(C)(C)[C@@H]5CC[C@]43C)[C@@H]12 [Compound 24, (1R,3aS,5aR,5bR,7aR,9S,11aR,11bR,13aR, 13bR)-9-((E)-3-(3,4-diacetoxyphenyl)acryloyloxy)-5a,5b,8,8,11a-pentamethyl-1-(prop-1-en-2-yl)icosahydro-1H-cyclopenta[a]chrysene-3a-carboxylic acid] | greater than 5 fold |  |  |  |  |  |  |  |  |  |  |  |  |  | 
2 | C=C(C)[C@@H]1CC[C@]2(C(=O)O)CC[C@]3(C)[C@H](CC[C@@H]4[C@@]5(C)CC[C@H](OC(=O)/C=C/c6ccc(O)c(O)c6)C(C)(C)[C@@H]5CC[C@]43C)[C@@H]12 [Compound 25, (1R,3aS,5aR,5bR,7aR,9S,11aR,11bR,13aR, 13bR)-9-((E)-3-(3,4-dihydroxyphenyl)acryloyloxy)-5a,5b,8,8,11a-pentamethyl-1-(prop-1-en-2-yl)icosahydro-1H-cyclopenta[a]chrysene-3a-carboxylic acid] | greater than 5 fold |  |  |  |  |  |  |  |  |  |  |  |  |  | 
3 | C=C(C)[C@@H]1CC[C@]2(COC3CCCCO3)CC[C@]3(C)[C@H](CC[C@@H]4[C@@]5(C)CC6=C(ON(O)C6)C(C)(C)[C@@H]5CC[C@]43C)[C@@H]12 (stereo partly drawn) [Compound 32, (1R,3aS,5aR,5bR,7aR,12aR,12bR,14aR,14bR)-1-isopropenyl-5a,5b,8,8,12a-pentamethyl-3a-[(tetrahydro-2H-pyran-2-yloxy)methyl]-1,2,3,3a,4,5,5a,5b,6,7,7a,8,11,12,12a,12b,13,14, 14a,14b-icosahydro-10H-cyclopenta[7,8]chryseno[3,2-d]isoxazol-10-ol] |  | 6 (≈ 10.6 µM) | potent across the entire cell line panel | more robust caspase activating property than betulinic acid | 6 (≈ 10.6 µM) | 6 (≈ 10.6 µM) | 6 (≈ 10.6 µM) | 8 (≈ 14.1 µM) | 5 (≈ 8.81 µM) | 6 (≈ 10.6 µM) | induced selective apoptosis at an optimal dose |  |  |  | 
4 | C=C(C)[C@@H]1CC[C@]2(CO)CC[C@]3(C)[C@H](CC[C@@H]4[C@@]5(C)C=C(C#N)C(=O)C(C)(C)[C@@H]5CC[C@]43C)[C@@H]12 [Compound 38, (1R,3aS,5aR,5bR,7aR,11aR,11bR,13aR,13bR)-3a-(hydroxymethyl)-5a,5b,8,8,11a-pentamethyl-9-oxo-1-(prop-1-en-2-yl)-2,3,3a,4,5,5a,5b,6,7,7a, 8,9,11a,11b,12,13,13a,13b-octadecahydro-1H-cyclopenta[a]chrysene-10-carbonitrile] |  | 6 (≈ 12.9 µM) | potent across the entire cell line panel | more robust caspase activating property than betulinic acid |  | 8 (≈ 17.3 µM) | 6 (≈ 12.9 µM) | 8 (≈ 17.3 µM) | 6 (≈ 12.9 µM) | 7 (≈ 15.1 µM) |  | activated caspases | inducing apoptosis over necrosis robustly | most potent apoptosis inducer | 
5 | C=C(C)[C@@H]1CC[C@]2(CNCC(=O)OC)CC[C@]3(C)[C@H](CC[C@@H]4[C@@]5(C)CC[C@H](OC(C)=O)C(C)(C)[C@@H]5CC[C@]43C)[C@@H]12 [Compound 72, methyl 2-(((1R,3aS,5aR,5bR,7aR,9S,1iaR,11bR,13aR,13bR)-9-acetoxy-5a,5b,8,8,11a-pentamethyl-1-(prop-1-en-2-yl)icosahydro-1H-cyclopenta[a]chrysen-3a-yl)methylamino)acetate] | greater than 5 fold | 6 (≈ 10.8 µM) |  |  | 75 (≈ 135 µM) | 6 (≈ 10.8 µM) | > 75 | > 75 | 6 (≈ 10.8 µM) | 36 (≈ 64.8 µM) |  |  |  |  | greater than 5 fold
6 | C=C(C)[C@@H]1CC[C@]2(CO)CC[C@]3(C)[C@H](CC[C@@H]4[C@@]5(C)CCC(NCCc6ccc(O)cc6)C(C)(C)[C@@H]5CC[C@]43C)[C@@H]12 (stereo partly drawn) [Compound 75, 4-(2-((1R,3aS,5aR,5bR,7aR,11aR,11bR,13aR,13bR)-3a-(hydroxymethyl)-5a,5b,8,8,11a-pentamethyl-1-(prop-1-en-2-yl)icosahydro-1H-cyclopenta[a]chrysen-9-ylamino)ethyl)phenol] |  |  |  | more robust caspase activating property than betulinic acid |  |  |  |  |  |  | induced selective apoptosis at an optimal dose |  |  |  | 
7 | C=C(C)[C@@H]1CC[C@]2(C(=O)O)CC[C@]3(C)[C@H](CC[C@@H]4[C@@]5(C)CCC(NCCNC(=O)OC(C)(C)C)C(C)(C)[C@@H]5CC[C@]43C)[C@@H]12 (stereo partly drawn) [Compound 79, (1R,3aS,5aR,5bR,7aR,11aR,11bR,13aR,13bR)-9-(2-(tert-butoxycarbonylamino)ethylamino)-5a,5b,8,8,11a-pentamethyl-1-(prop-1-en-2-yl)icosahydro-1H-cyclopenta[a]chrysene-3a-carboxylic acid] |  |  |  |  |  |  |  |  |  |  | induced selective apoptosis at an optimal dose |  |  |  | 
8 | C=C(C)[C@@H]1CC[C@]2(C(=O)O)CC[C@]3(C)[C@H](CC[C@@H]4[C@@]5(C)CC[C@H](NCCc6ccc(O)cc6)C(C)(C)[C@@H]5CC[C@]43C)[C@@H]12 [Compound 82, (1R,3aS,5aR,5bR,7aR,9S,11aR,11bR,13aR,13bR)-9-(4-hydroxyphenethylamino)-5a,5b,8,8,11a-pentamethyl-1-(prop-1-en-2-yl)icosahydro-1H-cyclopenta[a]chrysene-3a-carboxylic acid] |  | 5 (≈ 8.68 µM) | potent across the entire cell line panel |  | 6 (≈ 10.4 µM) | 5 (≈ 8.68 µM) | 5 (≈ 8.68 µM) | 4 (≈ 6.95 µM) | 5 (≈ 8.68 µM) | 6 (≈ 10.4 µM) |  |  |  |  | 
9 | CC(C)[C@@H]1CC[C@]2(C(=O)O)CC[C@]3(C)[C@H](CC[C@@H]4[C@@]5(C)CC[C@H](N)C(C)(C)[C@@H]5CC[C@]43C)[C@@H]12 [Compound 86, (1S,3aS,5aR,5bR,7aR,9S,11aR,11bR,13aR,13bR)-9-amino-1-isopropyl-5a,5b,8,8,11a-pentamethylicosahydro-1H-cyclopenta[a]chrysene-3a-carboxylic acid] |  | 5 (≈ 10.9 µM) | potent across the entire cell line panel |  | 6 (≈ 13.1 µM) | 6 (≈ 13.1 µM) | 5 (≈ 10.9 µM) | 5 (≈ 10.9 µM) | 6 (≈ 13.1 µM) | 6 (≈ 13.1 µM) |  |  |  |  | 
